Data: article PMC4980604 (Scientific Reports, 2016)

Biological target: T1, P-glycoprotein (P-gp) (Homo sapiens, UniProt P08183)
T1 construct: gene ABCB1; P-gp membranes (Pgp-Glo assay system)
Test: Pgp-Glo ATPase stimulation at […] (membranes)
Type: biochemical

T1 sequence (P08183 whole entry): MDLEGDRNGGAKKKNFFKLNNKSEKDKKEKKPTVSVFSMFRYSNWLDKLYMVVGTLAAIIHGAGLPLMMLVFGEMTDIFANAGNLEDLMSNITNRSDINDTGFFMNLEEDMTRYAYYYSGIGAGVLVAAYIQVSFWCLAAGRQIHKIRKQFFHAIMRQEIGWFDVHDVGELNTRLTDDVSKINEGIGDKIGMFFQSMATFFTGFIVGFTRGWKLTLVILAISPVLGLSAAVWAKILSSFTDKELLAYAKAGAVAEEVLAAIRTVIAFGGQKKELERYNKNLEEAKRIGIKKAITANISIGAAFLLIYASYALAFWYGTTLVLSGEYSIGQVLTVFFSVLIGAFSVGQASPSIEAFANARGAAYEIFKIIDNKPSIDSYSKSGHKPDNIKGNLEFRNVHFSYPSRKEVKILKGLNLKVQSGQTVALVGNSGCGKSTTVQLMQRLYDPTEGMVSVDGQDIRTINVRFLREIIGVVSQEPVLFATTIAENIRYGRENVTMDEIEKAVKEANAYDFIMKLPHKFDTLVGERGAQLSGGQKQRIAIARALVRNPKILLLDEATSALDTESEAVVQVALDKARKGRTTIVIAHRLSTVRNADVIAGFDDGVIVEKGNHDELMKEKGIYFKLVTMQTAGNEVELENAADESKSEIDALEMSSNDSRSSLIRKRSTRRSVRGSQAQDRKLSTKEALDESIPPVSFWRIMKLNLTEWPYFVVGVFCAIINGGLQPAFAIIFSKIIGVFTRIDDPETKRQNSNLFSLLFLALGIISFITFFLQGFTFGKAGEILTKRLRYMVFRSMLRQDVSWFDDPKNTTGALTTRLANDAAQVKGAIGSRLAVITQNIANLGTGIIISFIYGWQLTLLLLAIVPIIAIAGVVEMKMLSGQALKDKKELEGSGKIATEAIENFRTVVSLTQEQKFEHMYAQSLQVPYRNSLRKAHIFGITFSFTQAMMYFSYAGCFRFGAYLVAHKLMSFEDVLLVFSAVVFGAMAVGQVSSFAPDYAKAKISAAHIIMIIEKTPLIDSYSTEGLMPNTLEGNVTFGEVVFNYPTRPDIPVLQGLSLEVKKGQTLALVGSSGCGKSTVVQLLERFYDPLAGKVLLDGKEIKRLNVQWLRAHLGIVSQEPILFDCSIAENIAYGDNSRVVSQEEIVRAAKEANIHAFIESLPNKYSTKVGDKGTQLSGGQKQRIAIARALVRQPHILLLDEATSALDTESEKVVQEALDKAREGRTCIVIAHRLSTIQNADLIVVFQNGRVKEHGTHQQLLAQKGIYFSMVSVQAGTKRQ

CC[C@]1(O)C[C@H]2CN(CCc3c([nH]c4ccccc34)[C@@](C(=O)OC)(c3cc4c(cc3OC)N(C=O)[C@H]3[C@@](O)(C(=O)OC)[C@H](OC(C)=O)[C@]5(CC)C=CCN6CC[C@]43[C@@H]65)C2)C1 [vincristine] was tested, and the “Pgp-Glo ATPase stimulation at 2 μM (membranes)” value was “verapamil and vincristine induced an obvious increase in activity of P-gp ATPase”.
